Measured values: patent publication US9975900B2, “Substituted imidazo[1,2-α]pyrazines for treating spinal muscular atrophy” (Hoffmann-La Roche Inc., priority 2014, dated 2018)
Where a name gives a salt, the structure may show the parent alone.

Key:
[1] = tested on: SMN protein in SMA patient fibroblast cells (GM03813); experiment: SMN protein assay (HTRF) in cultured cells; format: cell-based; conditions: Homo sapiens, SMA Type 1 patient fibroblasts, 48 hours; for EC (1.5-fold): 7-point concentration curve, concentration giving 1.5 times SMN protein vs vehicle, read-out: EC1.5x SMN protein (EC1.5x concentration for SMN protein expression); for maximal fold induction: fold increase relative to vehicle control, read-out: Max. fold increase of SMN protein
Description: The SMN HTRF (homogeneous time resolved fluorescence) assay is used to quantify the level of SMN protein in SMA patient fibroblast cells treated with test compounds. Materials used and respective sources are listed below in Table 4.
Cells are thawed and cultured in DMEM-10% FBS for 72 hours. Cells are trypsinized, counted and re-suspended to a concentration of 25,000 cells/mL in DMEM-10% FBS. The cell suspensions are plated at 5,000 cells per well in a 96 well microtiter plate and incubated for 3 to 5 hours. Test compounds are serially diluted 3.16-fold in 100% DMSO to generate a 7-point concentration curve. 1 μL of test compound solution is transferred to cell-containing wells and cells are incubated for 48 hours in a cell culture incubator (37° C., 5% CO2, 100% relative humidity). Triplicate samples are set up for each test compound concentration. After 48 hours, the supernatant is removed from the wells and 25 μL of the RIPA lysis buffer, containing protease inhibitors, is added to the wells and incubated with shaking at room temperature for 1 hour. 25 μL of the diluent is added and then 35 μL of the resulting lysate is transferred to a 384-well plate, where each well contains 5 μL of the antibody solution (1:100 dilution of anti-SMN d2 and anti-SMN cryptate in SMN reconstitution buffer). The plate is centrifuged for 1 minute to bring the solution to the bottom of the wells, then incubated overnight at room temperature. Fluorescence for each well of the plate at 665 nm and 620 nm is measured on an EnVision multilabel plate reader (Perkin-Elmer).
The normalized fluorescence signal is calculated for each sample, Blank and vehicle control well by dividing the signal at 665 nm by the signal at 620 nm. Normalizing the signal accounts for possible fluorescence quenching due to the matrix effect of the lysate. The ΔF value (a measurement of SMN protein abundance as a percent value) for each sample well is calculated by subtracting the normalized average fluorescence for the Blank control wells from the normalized fluorescence for each sample well, then dividing this difference by the normalized average fluorescence for the Blank control wells and multiplying the resulting value by 100. The ΔF value for each sample well represents the SMN protein abundance from test compound-treated samples. The ΔF value for each sample well is divided by the ΔF value for the vehicle control wells to calculate the fold increase in SMN protein abundance relative to the vehicle control. Table 5 provides EC1.5× concentrations for SMN protein expression that was obtained from the 7-point concentration data generated according to the above procedure for particular compounds of the present invention.
Table 6 provides the maximum fold increase of SMN protein that was obtained from the 7-point concentration data generated according to the above procedure for particular compounds of the present invention

[2] = tested on: full length SMN2 minigene mRNA (HEK293H cells stably transfected with the SMN2-A minigene construct); experiment: RT-qPCR assay for SMN2 minigene pre-mRNA splicing in cultured cells; format: cell-based; conditions: Homo sapiens, HEK293-H, 24 hours, 7-point concentration curve, concentration giving 1.5-fold FL SMN2mini mRNA vs vehicle, read-out: EC1.5x minigene (EC1.5x concentration for production of full length SMN2 minigene mRNA)
Description: The reverse transcription-quantitative PCR-based (RT-qPCR) assay is used to quantify the level of the full length SMN2 minigene (referred to herein by the term “FL SMN2mini”) mRNA containing SMN2 exon 7 in a HEK293H cell line stably transfected with said minigene and treated with a test compound. Materials used and respective sources are listed below in Table 1.
The SMN2-A minigene construct was prepared as described in International Patent Application WO2009/151546A1 page 145 paragraph [00400] to page 147 paragraph [00412] (incl. FIG. 1 and FIG. 3 therein).
HEK293H cells stably transfected with the SMN2-A minigene construct (10,000 cells/well) are seeded in 200 μL of cell culture medium (DMEM plus 10% FBS, with 200 μg/mL hygromycin) in 96-well flat-bottom plates and the plate is immediately swirled to ensure proper dispersal of cells and the formation of an even monolayer of cells. Cells are allowed to attach for 6 hours. Test compounds are serially diluted 3.16-fold in 100% DMSO to generate a 7-point concentration curve. A solution of test compound (1 μL, 200× in DMSO) is added to each cell-containing well and the plate is incubated for 24 hours in a cell culture incubator (37° C., 5% CO2, 100% relative humidity). 2 replicates are prepared for each test compound concentration. The cells are then lysed in the Cells-To-Ct lysis buffer and the lysate is stored at −80° C.
Full length SMN2-A minigene and GAPDH mRNA are quantified using the primers and probes referenced in Table 2. Primer SMN Forward A (SEQ ID NO.1) hybridizes to a nucleotide sequence in exon 7 (nucleotide 22 to nucleotide 40), primer SMN Reverse A (SEQ ID NO.2) hybridizes to a nucleotide sequence in the coding sequence of Firefly luciferase, SMN Probe A (SEQ ID NO.3) hybridizes to a nucleotide sequence in exon 7 (nucleotide 50 to nucleotide 54) and exon 8 (nucleotide 1 to nucleotide 21). The combination of these three oligonucleotides detects only SMN1 or SMN2 minigenes (RT-qPCR) and will not detect endogenous SMN1 or SMN2 genes.
The SMN forward and reverse primers are used at final concentrations of 0.4 μM. The SMN probe is used at a final concentration of 0.15 μM. The GAPDH primers are used at final concentrations of 0.2 μM and the probe at 0.15 μM.
The SMN2-minigene GAPDH mix (15 μL total volume) is prepared by combining 7.5 of 2×RT-PCR buffer, 0.4 μL of 25×RT-PCR enzyme mix, 0.75 μL of 20× GAPDH primer-probe mix, […] of water, 2 μL of 10-fold diluted cell lysate, 0.06 μL of 100 μM SMN forward primer, 0.06 μL of 100 μM SMN reverse primer, and 0.225 μL of 100 μM SMN probe.
PCR is carried out at the following temperatures for the indicated time: Step 1: 48° C. (15 min); Step 2: 95° C. (10 min); Step 3: 95° C. (15 sec); Step 4: 60° C. (1 min); then repeat Steps 3 and 4 for a total of 40 cycles.
Each reaction mixture contains both SMN2-A minigene and GAPDH primers/probe sets (multiplex design), allowing simultaneous measurement of the levels of two transcripts.
The increase in the abundance of the FL SMN2mini mRNA relative to that in cells treated with vehicle control is determined from real-time PCR data using a modified ΔΔCt method (as described in Livak and Schmittgen, Methods, 2001, 25:402-8). The amplification efficiency E is calculated from the slope of the amplification curve for FL SMN2mini and GAPDH individually. The abundance of FL SMN2mini and GAPDH mRNA are then calculated as (1+E)^−Ct, where Ct is the threshold value for each amplicon. The abundance of FL SMN2mini mRNA is normalized to GAPDH mRNA abundance. The normalized FL SMN2mini mRNA abundance from test compound-treated samples is then divided by normalized FL SMN2mini mRNA abundance from vehicle-treated cells to determine the level of FL SMN2mini mRNA relative to vehicle control. […]

| SMILES | EC (1.5-fold) [1] | maximal fold induction [1] | EC (1.5-fold) [2] |
| --- | --- | --- | --- |
| CCc1nc(NC(=O)c2ccc(N3CCN4CCC[C@H]4C3)cc2F)cn2cc(C)nc12 [Example 16, 4-[(8aS)-3,4,6,7,8,8a-hexahydro-1H-pyrrolo[1,2-a]pyrazin-2-yl]-N-(8-ethyl-2-methylimidazo[1,2-a]pyrazin-6-yl)-2-fluorobenzamide] | 0.237 µM | 1.72 | 0.0314 µM |
| Cc1cn2cc(NC(=O)c3ccc(N4CCN5CCC[C@H]5C4)cc3F)nc(C3CC3)c2n1 [Example 17, 4-[(8aS)-3,4,6,7,8,8a-hexahydro-1H-pyrrolo[1,2-a]pyrazin-2-yl]-N-(8-cyclopropyl-2-methylimidazo[1,2-a]pyrazin-6-yl)-2-fluorobenzamide] | 1.7 µM | 1.51 | 0.0338 µM |
| Cc1cn2cc(NC(=O)c3c(F)cc(N4CCN5CCC[C@H]5C4)cc3F)nc(C)c2n1 [Example 18, 4-[(8aS)-3,4,6,7,8,8a-hexahydro-1H-pyrrolo[1,2-a]pyrazin-2-yl]-N-(2,8-dimethylimidazo[1,2-a]pyrazin-6-yl)-2,6-difluorobenzamide] | 0.117 µM | 1.75 | 0.0234 µM |
| Cc1cn2cc(NC(=O)c3ccc(N4C[C@@H](C)N[C@@H](C)C4)cc3F)nc(C)c2n1 [Example 19, N-(2,8-dimethylimidazo[1,2-a]pyrazin-6-yl)-4-[(3R,5S)-3,5-dimethylpiperazin-1-yl]-2-fluorobenzamide] | 0.0274 µM | 1.71 | 0.003 µM |
| Cc1cn2cc(NC(=O)c3ccc(N4CC[C@H](N5CCCC5)C4)cc3F)nc(C)c2n1 [Example 20, N-(2,8-dimethylimidazo[1,2-a]pyrazin-6-yl)-2-fluoro-4-[(3S)-3-pyrrolidin-1-ylpyrrolidin-1-yl]benzamide] | 0.101 µM | 1.7 | 0.023 µM |
| CCc1nc(NC(=O)c2ccc(N3CCN[C@H](C)C3)cc2F)cn2cc(C)nc12 [Example 21, N-(8-ethyl-2-methylimidazo[1,2-a]pyrazin-6-yl)-2-fluoro-4-[(3R)-3-methylpiperazin-1-yl]benzamide hydrochloride] | 0.162 µM | 1.8 | 0.0204 µM |
| Cc1cn2cc(NC(=O)c3ccc(N4CCN5CCC[C@@H]5C4)cc3F)nc(C3CC3)c2n1 [Example 22, 4-[(8aR)-3,4,6,7,8,8a-hexahydro-1H-pyrrolo[1,2-a]pyrazin-2-yl]-N-(8-cyclopropyl-2-methylimidazo[1,2-a]pyrazin-6-yl)-2-fluorobenzamide] | 0.66 µM | 1.5 | 0.0952 µM |
| Cc1cn2cc(NC(=O)c3ccc(N4CCN[C@H](C)C4)cc3F)nc(C3CC3)c2n1 [Example 23, N-(8-cyclopropyl-2-methylimidazo[1,2-a]pyrazin-6-yl)-2-fluoro-4-[(3R)-3-methylpiperazin-1-yl]benzamide hydrochloride] | 0.0622 µM | 1.72 | 0.0268 µM |
| Cc1cn2cc(NC(=O)c3ccc(N4CC[C@H](N5CCCC5)C4)cc3F)ncc2n1 [Example 24, 2-fluoro-N-(2-methylimidazo[1,2-a]pyrazin-6-yl)-4-[(3S)-3-pyrrolidin-1-ylpyrrolidin-1-yl]benzamide] | 0.113 µM | 1.75 | 0.051 µM |
| Cc1cn2cc(NC(=O)c3ccc(N4CCN[C@H](C)C4)cc3F)ncc2n1 [Example 25, 2-fluoro-N-(2-methylimidazo[1,2-a]pyrazin-6-yl)-4-[(3R)-3-methylpiperazin-1-yl]benzamide hydrochloride] | 0.123 µM | 1.88 | 0.0146 µM |
| Cc1cn2cc(NC(=O)c3ccc(N4CCNC5(CC5)C4)cc3F)ncc2n1 [Example 26, 4-(4,7-diazaspiro[2.5]octan-7-yl)-2-fluoro-N-(2-methylimidazo[1,2-a]pyrazin-6-yl)benzamide hydrochloride] | 1.61 µM | 1.57 | 0.0596 µM |
| Cc1cn2cc(NC(=O)c3ccc(N4C[C@@H](C)N[C@@H](C)C4)cc3F)ncc2n1 [Example 27, 4-[(3S,5R)-3,5-dimethylpiperazin-1-yl]-2-fluoro-N-(2-methylimidazo[1,2-a]pyrazin-6-yl)benzamide] | 1.52 µM | 1.85 | 0.0167 µM |
| Cc1cn2cc(NC(=O)c3c(F)cc(N4CCNCC4)cc3Cl)ncc2n1 [Example 28, 2-chloro-6-fluoro-N-(2-methylimidazo[1,2-a]pyrazin-6-yl)-4-piperazin-1-ylbenzamide hydrochloride] | 8.76 µM | 1.65 | 2.03 µM |
| Cc1cn2cc(NC(=O)c3cc(F)c(N4CCNC(C)C4)cc3F)ncc2n1 (stereo not drawn) [Example 29, 2,5-difluoro-N-(2-methylimidazo[1,2-a]pyrazin-6-yl)-4-(3-methylpiperazin-1-yl)benzamide hydrochloride] | 0.495 µM | 1.91 | 0.0852 µM |
